The text below walks through data of patent publication US20220280514A1, “METHODS OF TREATING BILE ACID DIARRHEA” (THE REGENTS OF THE UNIVERSITY OF CALIFORNIA, priority 2019, published 2022).

Usually IC50 stands for the midpoint of a concentration-inhibition curve.

Series [1] has as its target T1, CFTR (Mus musculus, UniProt P26361).
T1 construct: a full-thickness fragment is mounted in a micro-Ussing chamber; from tissue; host or cells: CD1 mouse colon, full-thickness fragment
Put plainly: Short-circuit current measurement in mouse distal colon (ex vivo). The source says: For intestinal short-circuit current measurement, CD1 mice are anesthetized with isoflurane. The colon is removed, washed with ice-cold Krebs buffer, opened along the mesenteric border, and a full-thickness fragment is mounted in a micro-Ussing chamber (area 0.7 cm^2, World Precision Instruments). Hemichambers are filled with oxygenated Krebs-bicarbonate solution.

In series [2] the target is T2, CFTR (Homo sapiens, UniProt P13569). Put plainly: Short-circuit current in primary human colonoid monolayer cultures. It counts as cell-based. Details: Human cultures are generated from isolated intestinal crypts embedded in Matrigel; endogenous in cells; host or cells: primary human colonoid monolayers from three subjects. As to conditions: human colonoid monolayers. The source says: Human colonoid cultures are generated from de-identified tissue samples (other than age and sex) obtained from endoscopic or surgical procedures from three different subjects. Human cultures are generated from isolated intestinal crypts embedded in Matrigel (Corning, Tewksbury, Mass.) in 24-well plates and cultured in the presence of Wnt3A, R-spondin-1 and Noggin containing undifferentiated media (UDM) as described in Zachos, N. C. et. al (2016) Human enteroids/colonoids and intestinal organoids functionally recapitulate normal intestinal physiology and pathophysiology. J Biol Chem 291, 3759-3766; In, J., et al. (2016) Enterohemorrhagic Escherichia coli reduce mucus and intermicrovillar bridges in human stem cell-derived colonoids. Cell Mol Gastroenterol Hepatol 2, 48-62. Matrigel cultures in UDM media are used for the propagation of colonoids. To generate monolayer cultures, colonoids are triturated in Cultrex Organoid Harvesting Solution (Trevigen, Gaithersburg, Md.), and the fragments are collected by centrifugation and resuspended in UDM. Colonoid fragments (100 μL) are seeded onto 0.4 μm pore polyester membrane 24-well cell culture inserts (Transwell; Corning, Tewksbury, Mass.) pre-coated with human collagen IV (34 μg/mL; Millipore Sigma). […] Under these conditions, cultures reach confluency in 7-14 days as monitored by transepithelial resistance. […]
T2 sequence (P13569 whole entry): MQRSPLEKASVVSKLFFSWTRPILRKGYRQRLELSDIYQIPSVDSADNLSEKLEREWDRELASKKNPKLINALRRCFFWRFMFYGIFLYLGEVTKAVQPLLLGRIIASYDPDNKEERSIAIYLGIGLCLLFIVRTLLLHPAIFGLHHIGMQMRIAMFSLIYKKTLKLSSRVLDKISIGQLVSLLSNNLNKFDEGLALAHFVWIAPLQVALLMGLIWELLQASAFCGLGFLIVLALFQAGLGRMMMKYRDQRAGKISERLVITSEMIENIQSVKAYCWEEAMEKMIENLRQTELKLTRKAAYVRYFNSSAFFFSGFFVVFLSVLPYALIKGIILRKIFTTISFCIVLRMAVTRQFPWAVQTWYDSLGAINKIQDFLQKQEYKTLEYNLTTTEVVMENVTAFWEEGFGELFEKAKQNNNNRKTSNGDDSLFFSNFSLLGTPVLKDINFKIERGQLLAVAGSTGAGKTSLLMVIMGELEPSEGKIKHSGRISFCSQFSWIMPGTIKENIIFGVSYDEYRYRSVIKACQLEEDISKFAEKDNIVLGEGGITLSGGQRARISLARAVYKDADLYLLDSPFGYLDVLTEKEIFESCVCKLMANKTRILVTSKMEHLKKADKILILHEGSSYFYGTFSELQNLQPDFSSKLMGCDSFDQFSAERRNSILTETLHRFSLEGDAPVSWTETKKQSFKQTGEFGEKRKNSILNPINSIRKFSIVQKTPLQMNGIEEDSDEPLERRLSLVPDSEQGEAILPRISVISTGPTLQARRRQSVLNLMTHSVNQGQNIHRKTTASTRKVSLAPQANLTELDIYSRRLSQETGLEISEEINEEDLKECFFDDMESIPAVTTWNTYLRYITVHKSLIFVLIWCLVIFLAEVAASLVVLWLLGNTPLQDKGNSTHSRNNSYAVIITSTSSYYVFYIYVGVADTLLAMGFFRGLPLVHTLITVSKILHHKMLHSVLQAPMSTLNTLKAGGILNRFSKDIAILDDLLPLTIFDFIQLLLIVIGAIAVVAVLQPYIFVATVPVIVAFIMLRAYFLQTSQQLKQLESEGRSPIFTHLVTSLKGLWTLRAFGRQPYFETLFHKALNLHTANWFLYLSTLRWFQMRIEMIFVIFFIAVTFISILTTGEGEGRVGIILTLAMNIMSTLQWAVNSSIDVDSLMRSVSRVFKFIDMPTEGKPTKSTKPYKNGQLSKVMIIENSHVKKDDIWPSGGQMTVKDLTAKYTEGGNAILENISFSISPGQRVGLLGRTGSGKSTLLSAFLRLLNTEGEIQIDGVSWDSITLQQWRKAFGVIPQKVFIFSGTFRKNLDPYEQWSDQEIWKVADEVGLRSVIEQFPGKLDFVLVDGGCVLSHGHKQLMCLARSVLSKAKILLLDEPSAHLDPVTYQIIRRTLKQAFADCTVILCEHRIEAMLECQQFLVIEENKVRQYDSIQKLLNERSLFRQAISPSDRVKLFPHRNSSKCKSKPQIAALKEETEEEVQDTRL

The conditions of series [3]: mice; 5 mg/kg intraperitoneally; cited from earlier work.
The target of series [4] is T2, CFTR. Kind of series: Short-circuit current measurements in T84 cells (bile acid-induced secretory current). It counts as cell-based. Details: short-circuit current provides a direct measure of apical CFTR Cl^− current; host or cells: T84 cells. The note with it: for block of the increase in short-circuit current following CDCA application: CDCA 0.75 mM both bathing solutions, inhibitor 10 μM; for prosecretory response (increase in short-circuit current) to bile acid: bile acid added to both apical and basolateral bathing solutions. How it is done:
T84 cells (ATCC CCL-248) are cultured in a 1:1 mixture of DMEM/Ham's F-12 medium supplemented with 10% FBS, 100 U/mL penicillin and 100 μg/mL streptomycin. Cells are grown on Snapwell inserts (Costar Corning, Horseheads, N.Y.) at 37° C. in 5% CO2/95% air and used 7-14 days after plating.
T84 cells are mounted in Ussing chambers and bathed in symmetrical HCO3^−-buffered solution containing (in mM): 120 NaCl, 5 KCl, 1 MgCl2, 1 CaCl2), 10 D-glucose, 5 HEPES and 25 NaHCO3 (pH 7.4). The solutions are aerated with 95% O2/5% CO2 and maintained at 37° C. In one study, for measurement of apical Cl^− conductance, a basolateral to apical Cl^− gradient is applied in which the basolateral hemichamber contains (in mM): 120 NaCl, 1 MgCl2, 1 CaCl2, 10 D-glucose, 5 HEPES and 25 NaHCO3 (pH 7.4); in the apical solution 120 mM NaCl is replaced by 5 mM NaCl and 115 mM Na-gluconate, and the basolateral membrane is permeabilized with 250 µg/ml amphotericin B. Short-circuit current is measured using an EVC4000 multichannel voltage clamp (World Precision Instruments, Sarasota, Fla.).

Series [5] addresses T3, CFTR (Rattus norvegicus, UniProt P34158).
T3 construct: from tissue; host or cells: Sprague-Dawley rats in vivo, colon
Put plainly: Rat model of bile acid diarrhea (mid-colonic CDCA infusion). The format is in vivo. The protocol:
Female Sprague-Dawley rats (age 8-10 weeks) are administered 500 μl CDCA (10 mM in PBS) or PBS vehicle by a mid-colonic infusion using a flexible plastic tube (15 gauge, 78 mm length, Instech Laboratories, Plymouth Meeting, Pa.). Rats are intraperitoneally administered (R)-BPO-27 (10 mg/kg) (or vehicle control) 30 min before infusion. (R)-BPO-27 is dissolved in saline containing 5% DMSO and 10% Kolliphor HS. Following the infusion, rats are placed individually in metabolic cages and given free access to water and food. Stool samples are collected prior to infusion (for baseline stool water content) and over 4 hours after the infusion. Stools are weighed immediately when visualized to determine wet weight. To determine stool water content, the stool samples are dried at 70° C. for 24 hours and water content is calculated as (wet weight−dry weight)/wet weight.

For series [6], the target named is T1, CFTR. Put plainly: CDCA-induced fluid secretion in closed intestinal loops in mice. The format is in vivo. As to conditions: for reduction in loop fluid accumulation: 5 mg/kg intraperitoneally 60 min before. The protocol: CD1 mice (age 8-10 weeks) are given access to 5% dextrose water but not solid food for 24 h before experiments. Mice are administered (R)-BPO-27 (5 mg/kg) or vehicle (5% DMSO, 10% Kolliphor HS in saline) intraperitoneally 60 min before creation of closed intestinal (mid-jejunal or distal colonic) loops and injection of CDCA or PBS vehicle. […] See Cil, O., et al. (2017) Benzopyrimido-pyrrolo-oxazine-dione CFTR inhibitor (R)-BPO-27 for antisecretory therapy of diarrheas caused by bacterial enterotoxins. FASEB J 31, 751-760. For creation of loops, mice are anesthetized with isoflurane, and body temperature is maintained during surgery at 36-38° C. using a heating pad. A small abdominal incision is made to expose the intestine. For the mid-jejunal closed-loop model, 2-3 cm loops are created by sutures. Loops are injected with 100 μl PBS containing CDCA or PBS vehicle. The abdominal incision is closed with sutures, and mice are allowed to recover from anesthesia. In the colonic closed-loop model, mice are given an enema (500 μl of mineral oil) 12 hours before surgery to cleanse the colon of solids as previously reported (Haggie, P. M., et al. (2018) SLC26A3 inhibitor identified in small molecule screen blocks colonic fluid absorption and reduces constipation. JCI Insight 3, e121370) and a 1-2 cm closed loop is created by sutures. Intestinal loops are surgically removed at specified times, and loop length and weight is measured to quantify fluid secretion. In some experiments, CF mice (ΔF508 homozygous, age 8-10 weeks) are used.

In a further series the test system is T84 cells. Put plainly: Intracellular Ca2+ measurement by Fluo-4 fluorescence in T84 cells. It counts as cell-based. The note with it: CDCA 0.75 or 1 mM, ATP or carbachol 100 μM, BAPTA-AM 30 μM pretreatment 30 min. The protocol:
T84 cells are plated in 96-well black-walled microplates. Confluent cells are loaded with Fluo-4 NW (Invitrogen, Carlsbad, Calif.) at 72 h after plating. For Ca^2+ measurement Fluo-4 fluorescence is measured with a FluoStar fluorescence plate reader (BMG Lab Technologies, Durham, N.C.) at excitation/emission wavelengths of 485/538 nm. In some studies cells are pretreated for 30 min with BAPTA-AM. Ca^2+ measurement in human colonoid cultures is done in monolayers that are transduced with the fluorescent Ca^2+ sensor Adeno-GCsMP6s. For cAMP assay, T84 cells are grown in 24-well plates, treated for 30 min with CDCA and/or forskolin, lysed by repeating freeze/thaw, centrifuged to remove cell debris, and the supernatant is assayed for cAMP using the Parameter cAMP immunoassay kit according to the manufacturer's instructions (R&D Systems, Minneapolis, […].).

Where [7] appears, read: closed mid-jejunal loops, CDCA 10 mM.

Structures are written as SMILES. Where only a bound is given, the exact number is not on record here.

T1 sequence (P26361 whole entry, the tested form may be a part): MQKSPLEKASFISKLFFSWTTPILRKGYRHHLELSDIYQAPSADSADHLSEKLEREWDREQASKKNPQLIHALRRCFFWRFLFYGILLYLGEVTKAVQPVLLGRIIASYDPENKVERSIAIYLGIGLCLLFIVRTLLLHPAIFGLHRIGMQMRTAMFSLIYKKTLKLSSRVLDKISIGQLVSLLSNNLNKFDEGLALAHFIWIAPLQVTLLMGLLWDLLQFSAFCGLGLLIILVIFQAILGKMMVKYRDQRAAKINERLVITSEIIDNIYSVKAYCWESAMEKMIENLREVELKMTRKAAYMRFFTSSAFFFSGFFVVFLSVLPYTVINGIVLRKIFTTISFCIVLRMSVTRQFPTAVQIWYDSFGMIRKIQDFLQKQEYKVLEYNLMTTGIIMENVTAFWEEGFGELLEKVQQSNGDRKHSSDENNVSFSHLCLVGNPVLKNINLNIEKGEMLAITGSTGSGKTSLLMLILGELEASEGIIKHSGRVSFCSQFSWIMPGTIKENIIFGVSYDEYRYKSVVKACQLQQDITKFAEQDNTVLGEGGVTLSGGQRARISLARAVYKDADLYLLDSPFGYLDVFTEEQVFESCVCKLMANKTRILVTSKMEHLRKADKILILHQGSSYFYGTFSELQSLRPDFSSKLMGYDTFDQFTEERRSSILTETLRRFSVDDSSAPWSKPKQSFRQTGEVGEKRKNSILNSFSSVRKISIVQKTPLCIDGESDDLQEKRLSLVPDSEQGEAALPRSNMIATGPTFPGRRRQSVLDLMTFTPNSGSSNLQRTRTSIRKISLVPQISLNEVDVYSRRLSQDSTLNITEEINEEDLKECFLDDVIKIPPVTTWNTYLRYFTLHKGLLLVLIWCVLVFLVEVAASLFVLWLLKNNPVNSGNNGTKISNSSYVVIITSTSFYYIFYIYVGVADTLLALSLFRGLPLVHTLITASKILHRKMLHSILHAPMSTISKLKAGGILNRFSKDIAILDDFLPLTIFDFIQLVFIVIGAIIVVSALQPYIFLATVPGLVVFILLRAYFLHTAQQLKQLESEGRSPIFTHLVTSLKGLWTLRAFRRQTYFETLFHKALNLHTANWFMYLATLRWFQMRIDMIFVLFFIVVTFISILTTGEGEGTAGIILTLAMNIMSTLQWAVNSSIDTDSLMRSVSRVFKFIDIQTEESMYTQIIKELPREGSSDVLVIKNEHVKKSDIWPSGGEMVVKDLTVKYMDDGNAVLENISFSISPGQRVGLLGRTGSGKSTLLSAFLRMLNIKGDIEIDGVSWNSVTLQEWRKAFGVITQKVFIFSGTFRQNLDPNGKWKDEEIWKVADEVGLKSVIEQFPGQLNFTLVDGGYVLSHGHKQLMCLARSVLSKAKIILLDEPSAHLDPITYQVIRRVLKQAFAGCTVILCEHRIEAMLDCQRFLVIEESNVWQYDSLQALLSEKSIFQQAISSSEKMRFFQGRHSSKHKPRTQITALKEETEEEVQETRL
T3 sequence (P34158 whole entry): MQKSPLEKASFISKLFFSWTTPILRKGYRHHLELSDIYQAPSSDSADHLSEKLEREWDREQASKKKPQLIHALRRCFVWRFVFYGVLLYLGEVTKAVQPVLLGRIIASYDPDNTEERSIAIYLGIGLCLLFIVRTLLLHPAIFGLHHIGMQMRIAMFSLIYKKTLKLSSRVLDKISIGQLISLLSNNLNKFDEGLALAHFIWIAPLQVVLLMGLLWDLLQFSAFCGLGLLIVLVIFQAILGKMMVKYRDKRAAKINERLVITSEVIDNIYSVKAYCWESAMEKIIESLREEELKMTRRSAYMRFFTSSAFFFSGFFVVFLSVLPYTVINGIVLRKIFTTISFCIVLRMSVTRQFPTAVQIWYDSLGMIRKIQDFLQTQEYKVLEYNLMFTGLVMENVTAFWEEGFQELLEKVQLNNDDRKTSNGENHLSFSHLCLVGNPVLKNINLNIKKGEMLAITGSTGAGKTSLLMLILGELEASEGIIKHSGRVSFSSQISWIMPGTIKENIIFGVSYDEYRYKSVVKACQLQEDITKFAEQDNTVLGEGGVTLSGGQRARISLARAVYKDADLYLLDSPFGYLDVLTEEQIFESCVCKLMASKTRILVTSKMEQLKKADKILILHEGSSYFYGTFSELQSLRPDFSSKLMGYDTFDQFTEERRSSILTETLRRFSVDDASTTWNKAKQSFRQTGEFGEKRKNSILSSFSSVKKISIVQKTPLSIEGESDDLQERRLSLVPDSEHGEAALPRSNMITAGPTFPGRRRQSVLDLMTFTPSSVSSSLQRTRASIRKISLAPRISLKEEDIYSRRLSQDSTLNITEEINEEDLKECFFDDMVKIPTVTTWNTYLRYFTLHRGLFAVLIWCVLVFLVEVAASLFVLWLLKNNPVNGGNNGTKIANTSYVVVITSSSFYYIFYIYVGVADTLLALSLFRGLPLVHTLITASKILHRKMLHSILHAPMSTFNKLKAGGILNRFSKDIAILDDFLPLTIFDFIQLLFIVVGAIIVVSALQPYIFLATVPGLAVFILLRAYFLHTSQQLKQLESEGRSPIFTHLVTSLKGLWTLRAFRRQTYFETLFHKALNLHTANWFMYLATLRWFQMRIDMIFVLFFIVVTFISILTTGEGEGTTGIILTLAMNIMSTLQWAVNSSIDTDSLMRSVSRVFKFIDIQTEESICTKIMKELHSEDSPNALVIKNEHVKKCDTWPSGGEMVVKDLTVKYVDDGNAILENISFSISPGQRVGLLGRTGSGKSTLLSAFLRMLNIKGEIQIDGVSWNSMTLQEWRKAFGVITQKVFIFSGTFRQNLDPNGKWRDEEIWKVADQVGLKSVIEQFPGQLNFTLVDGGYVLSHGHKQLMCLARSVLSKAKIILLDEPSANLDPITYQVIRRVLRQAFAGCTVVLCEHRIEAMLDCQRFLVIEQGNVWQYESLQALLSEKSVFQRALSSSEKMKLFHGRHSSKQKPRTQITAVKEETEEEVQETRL

As to `Cn1c(=O)c2c(-c3ccccc3)n3c(c2n(C)c1=O)[C@H](c1ccc(Br)o1)Oc1ccc(C(=O)O)cc1-3` [(R)-BPO-27, 6-(5-Bromofuran-2-yl)-7,9-dimethyl-8,10-dioxo-11-phenyl-7,8,9,10-tetrahydro-6H-benzo[b]pyrimido [4′,5′:3,4]pyrrolo [1,2-d][1,4]oxazine-2-carboxylic acid], at CFTR [1] (after apical CDCA 1 mM, (R)-BPO-27 10 μM, mean±S.E.M., n=3), the “change in short-circuit current after (R)-BPO-27” value was −5.2±1.7 μA/cm^2. Further, the “reversal of CDCA-induced short-circuit current” value on CFTR [1] (apical CDCA 1 mM, (R)-BPO-27 10 μM) is “fully reversed”. Besides, on CFTR [2] (apical CDCA, (R)-BPO-27 5 μM), the “reversal of CDCA-induced increase in short-circuit current” value is reported as “reversed”. The serum levels entry in series [3] was “therapeutic serum levels for several hours”. Further, the “block of the increase in short-circuit current following CDCA application” value on CFTR [4] (T84 cells) is reported as “fully blocked”. In addition, at CFTR [4] (T84 cells, bile acids in apical and basolateral solutions, (R)-BPO-27 10 μM), the “block of secretory current produced by CDCA, DCA and their taurine conjugates” value is given as “blocked”. Besides, the IC50 on CFTR [4] (T84 cells, concentration-dependence studies, data not shown, read-out: IC50 for inhibition of CDCA-induced short-circuit current) was less than 1000 nM. The “block of increased current after CDCA followed by forskolin” value on CFTR [4] (T84 cells, forskolin 10 μM, (R)-BPO-27 10 μM) is recorded as “fully blocked”. Moreover, the “inhibition of CDCA-activated apical CFTR Cl− current” value on CFTR [4] (basolateral membrane-permeabilized T84 monolayers, Cl− gradient, apical CDCA 0.75 or 1 mM, (R)-BPO-27 10 μM) is on record as “inhibition by (R)-BPO-27 is confirmed”. On CFTR [5] (rats receiving mid-colonic infusion of PBS, 10 mg/kg intraperitoneally), the “effect on stool quantity or water content” value is “does not affect”. The “inhibition of the increase in stool water content” value against CFTR [5] (rats, mid-colonic CDCA infusion 10 mM, 10 mg/kg intraperitoneally 30 min before, stool over 4 hours) is on record as approximately 55%. The “reduction in loop fluid accumulation” value on CFTR [6] (closed colonic loops, CDCA 2.5, 10 mM) is recorded as approximately 70%; at CFTR [6] (setting [7]) it was 55%.
For `Cn1c(=O)c2c(-c3ccccc3)n3c(c2n(C)c1=O)[C@@H](c1ccc(Br)o1)Oc1ccc(C(=O)O)cc1-3` [(S)-BPO-27, 6-(5-Bromofuran-2-yl)-7,9-dimethyl-8,10-dioxo-11-phenyl-7,8,9,10-tetrahydro-6H-benzo[b]pyrimido [4′,5′:3,4]pyrrolo [1,2-d][1,4]oxazine-2-carboxylic acid, reference compound], the “effect on loop fluid accumulation (in words)” value on CFTR [6] (setting [7]) is “no significant effect”.
In the case of `CC(=O)OCOC(=O)CN(CC(=O)OCOC(C)=O)c1ccccc1OCCOc1ccccc1N(CC(=O)OCOC(C)=O)CC(=O)OCOC(C)=O` [BAPTA-AM, 1,2-Bis(2-aminophenoxy)ethane-N,N,N′,N′-tetraacetic acid tetrakis(acetoxymethyl ester), reference compound], the “reduction of CDCA-induced increase in short-circuit current by pretreatment” value on CFTR [2] (CDCA 0.5 mM, BAPTA-AM 30 μM pretreatment 20 min) is on record as “greatly reduced”. Also, the “block of Ca2+ elevations” value with T84 cells is recorded as “largely blocked”. For the same molecule, on CFTR [4] (T84 cells, CDCA 1 mM, BAPTA-AM 30 μM pretreatment 25 min), the “block of CDCA-induced increase in short-circuit current by pretreatment” value is “largely blocked”.
On to `C[C@H](CCC(=O)O)[C@H]1CC[C@H]2[C@@H]3[C@H](O)C[C@@H]4C[C@H](O)CC[C@]4(C)[C@H]3CC[C@]12C` [CDCA, chenodeoxycholic acid, reference compound], for which, on CFTR [1] (CDCA 1 mM added to apical bathing solution, mean±S.E.M., n=3), the “increase in short-circuit current” value came to 5.2±1.4 μA/cm^2. On CFTR [1] (CDCA added to basolateral bathing solution), the “increase in short-circuit current (in words)” value was “No increase in short-circuit current”. The “prosecretory response (increase in short-circuit current) to bile acid” value at CFTR [4] (T84 cells) is “robust secretory current”. Also, at CFTR [5] (rats, mid-colonic infusion of CDCA 10 mM, stool over 4 hours), the “increase in stool water content” value was approximately 25%.
Consider `O=C(O)c1ccc(/C=C2\SC(=S)N(c3cccc(C(F)(F)F)c3)C2=O)cc1` [CFTRinh-172, 4-[[4-Oxo-2-thioxo-3-[3-(trifluoromethyl)phenyl]-5-thiazolidinylidene]methyl]benzoic acid, reference compound], for which the “block of the increase in short-circuit current following CDCA application” value at CFTR [4] (T84 cells) was “fully blocked”.
Consider `C[C@H](CCC(=O)O)[C@H]1CC[C@H]2[C@@H]3[C@H](O)C[C@@H]4C[C@H](O)CC[C@]4(C)[C@H]3C[C@H](O)[C@]12C` [cholic acid, reference compound], for which, at CFTR [4] (T84 cells), the “prosecretory response (increase in short-circuit current) to bile acid” value is “No increase in short-circuit current”.
